Assay results reported in patent US20090029992A1, “SUBSTITUTED PYRAZOLE COMPOUNDS” (priority 2007, published 2009).

Columns and labels:
[1] = target: T1, N-terminal His-tagged human Src (Homo sapiens, UniProt P12931); experiment: Src kinase inhibition assay (33P-ATP filter assay); format: biochemical
T1 construct: His (N); purchased Upstate USA Inc, 706 Forest Street, Charlottesville, Va

[2] = target: T2, recombinant Aurora A (Homo sapiens, UniProt O14965); experiment: Aurora A (Aurora 2) inhibition assay, Z'-Lyte kinase assay; format: biochemical; settings: group with IC50 greater than 100 nM; ATP 10 μM, 1 h
T2 construct: purchased Upstate, Lake Placid, N.Y
T2 sequence (O14965 1-403): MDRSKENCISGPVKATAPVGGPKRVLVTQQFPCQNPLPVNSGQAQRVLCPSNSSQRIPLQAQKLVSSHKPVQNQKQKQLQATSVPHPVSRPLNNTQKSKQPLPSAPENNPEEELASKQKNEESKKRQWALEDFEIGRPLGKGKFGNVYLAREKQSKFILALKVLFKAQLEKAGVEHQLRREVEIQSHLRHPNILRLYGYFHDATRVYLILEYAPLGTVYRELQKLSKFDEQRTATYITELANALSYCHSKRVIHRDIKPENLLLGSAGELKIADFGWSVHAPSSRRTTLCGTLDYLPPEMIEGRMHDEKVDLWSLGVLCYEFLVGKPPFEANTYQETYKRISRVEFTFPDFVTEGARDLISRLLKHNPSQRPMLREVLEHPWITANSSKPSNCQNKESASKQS
Method in brief: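 Z'-Lyte FRET assay: Aurora A (200-500 ng/mL final), Ser/Thr 1 peptide (2 μM) and ATP (10 μM) in 50 mM HEPES pH 7.5, 10 mM MgCl2, 5 mM EGTA, 0.05% Brij-35, 2 mM DTT, 1 h at room temperature. Coumarin/fluorescein emission ratio converted to percent phosphorylation; dose-response curves plotted.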

[3] = group with IC50 greater than 100 nM

T1 sequence (P12931 whole entry): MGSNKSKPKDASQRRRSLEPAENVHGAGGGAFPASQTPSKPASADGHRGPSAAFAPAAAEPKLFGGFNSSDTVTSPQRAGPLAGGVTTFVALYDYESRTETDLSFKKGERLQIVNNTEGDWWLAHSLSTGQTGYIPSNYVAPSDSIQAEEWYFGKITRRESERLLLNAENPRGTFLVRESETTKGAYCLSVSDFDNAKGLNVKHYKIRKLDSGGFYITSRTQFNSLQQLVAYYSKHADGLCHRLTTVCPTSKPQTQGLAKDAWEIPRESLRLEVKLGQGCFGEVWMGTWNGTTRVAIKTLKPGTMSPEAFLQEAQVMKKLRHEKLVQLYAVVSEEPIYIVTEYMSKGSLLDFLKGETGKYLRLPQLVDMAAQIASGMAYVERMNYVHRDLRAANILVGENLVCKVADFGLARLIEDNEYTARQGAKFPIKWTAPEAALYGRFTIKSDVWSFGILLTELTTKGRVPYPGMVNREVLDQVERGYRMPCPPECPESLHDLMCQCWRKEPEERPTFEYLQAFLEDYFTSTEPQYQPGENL

IC50 [1, 3] [µM] | IC50 [2] [µM] | IC50 ([1]; 40 minutes at room temperature) [µM] | Compound
≤ 1 | ≤ 1 | – | COCCN(C)c1cc(Nc2cc(C)[nH]n2)nc(-c2ccccc2Cl)n1 [Compound 63]
≤ 1 | ≤ 1 | – | COCCN(C)c1cc(Nc2cc(C)[nH]n2)nc(-c2cccc(C)c2)n1 [Compound 65, N^4-(2-methoxyethyl)-N^4-methyl-N^6-(5-methyl-1H-pyrazol-3-yl)-2-m-tolylpyrimidine-4,6-diamine]
≤ 1 | ≤ 1 | – | COCCN(C)c1cc(Nc2cc(C)[nH]n2)nc(-c2ccc(OC)cc2)n1 [Compound 67, N^4-(2-methoxyethyl)-2-(4-methoxyphenyl)-N^4-methyl-N^6-(5-methyl-1H-pyrazol-3-yl)pyrimidine-4,6-diamine]
≤ 1 | ≤ 1 | – | COCCN(C)c1cc(Nc2cc(C)[nH]n2)nc(-c2cccc(OC)c2)n1 [Compound 68, N^4-(2-methoxyethyl)-2-(3-methoxyphenyl)-N^4-methyl-N^6-(5-methyl-1H-pyrazol-3-yl)pyrimidine-4,6-diamine]
≤ 1 | ≤ 1 | – | Cc1cc(Nc2cc(NC3CCOCC3)nc(-c3ccc(C(C)(C)C)cc3)n2)n[nH]1 [Compound 70, 2-(4-tert-butylphenyl)-N^4-(5-methyl-1H-pyrazol-3-yl)-N^6-(tetrahydro-2H-pyran-4-yl)pyrimidine-4,6-diamine]
≤ 1 | ≤ 1 | – | Cc1cc(Nc2cc(NC3CCOCC3)nc(-c3ccc(C(F)(F)F)cc3)n2)n[nH]1 [Compound 79, N^4-(5-methyl-1H-pyrazol-3-yl)-N^6-(tetrahydro-2H-pyran-4-yl)-2-(4-(trifluoromethyl)phenyl)pyrimidine-4,6-diamine]
≤ 1 | ≤ 1 | – | Cc1cc(Nc2cc(NC3CCOCC3)nc(-c3cccc(C(F)(F)F)c3)n2)n[nH]1 [Compound 80, N^4-(5-methyl-1H-pyrazol-3-yl)-N^6-(tetrahydro-2H-pyran-4-yl)-2-(3-(trifluoromethyl)phenyl)pyrimidine-4,6-diamine]
≤ 1 | ≤ 1 | – | Cc1cc(Nc2cc(NC3CCOCC3)nc(-c3ccccc3C(F)(F)F)n2)n[nH]1 [Compound 81, N^4-(5-methyl-1H-pyrazol-3-yl)-N^6-(tetrahydro-2H-pyran-4-yl)-2-(2-(trifluoromethyl)phenyl)pyrimidine-4,6-diamine]
≤ 1 | ≤ 1 | – | Cc1cc(Nc2cc(N3CCN(C)CC3)nc(-c3cc(F)cc(Cl)c3)n2)n[nH]1 [Compound 97]
≤ 1 | ≤ 1 | – | Cc1cc(Nc2cc(N3CCN(C)CC3)nc(-c3ccc(C(F)(F)F)cc3)n2)n[nH]1 [Compound 100]
≤ 1 | ≤ 1 | – | Cc1cc(Nc2cc(N3CCN(C)CC3)nc(-c3ccccc3C(F)(F)F)n2)n[nH]1 [Compound 102, N-(5-methyl-1H-pyrazol-3-yl)-6-(4-methylpiperazin-1-yl)-2-(2-(trifluoromethyl)phenyl)pyrimidin-4-amine]
– | ≤ 1 | ≤ 0.1 | Cc1cc(Nc2cc(N(C)CCN(C)C)nc(-c3ccc(C(C)(C)C)cc3)n2)n[nH]1 [Compound 103, 2-(4-tert-butylphenyl)-N^4-(2-(dimethylamino)ethyl)-N^4-methyl-N^6-(5-methyl-1H-pyrazol-3-yl)pyrimidine-4,6-diamine]
– | ≤ 1 | ≤ 0.1 | Cc1cc(Nc2cc(N(C)CCN(C)C)nc(-c3cccc(N(C)C)c3)n2)n[nH]1 [Compound 107]
– | ≤ 1 | ≤ 0.1 | Cc1cc(Nc2cc(N(C)CCN(C)C)nc(-c3cccc(C(F)(F)F)c3)n2)n[nH]1 [Compound 113, N^4-(2-(dimethylamino)ethyl)-N^4-methyl-N^6-(5-methyl-1H-pyrazol-3-yl)-2-(3-(trifluoromethyl)phenyl)pyrimidine-4,6-diamine]
– | ≤ 1 | ≤ 0.1 | COCCN(C)c1cc(Nc2cc(C)[nH]n2)nc(-c2ccc(N(C)C)cc2)n1 [Compound 118, 2-(4-(dimethylamino)phenyl)-N^4-(2-methoxyethyl)-N^4-methyl-N^6-(5-methyl-1H-pyrazol-3-yl)pyrimidine-4,6-diamine]
≤ 1 | ≤ 1 | – | COCCN(C)c1cc(Nc2cc(C)[nH]n2)nc(-c2cccc(C(F)(F)F)c2)n1 [Compound 125, N^4-(2-methoxyethyl)-N^4-methyl-N^6-(5-methyl-1H-pyrazol-3-yl)-2-(3-(trifluoromethyl)phenyl)pyrimidine-4,6-diamine]
– | ≤ 1 | – | COCCN(C)c1cc(Nc2cc(C)[nH]n2)nc(-c2ccccc2C(F)(F)F)n1 [Example 126, N^4-(2-methoxyethyl)-N^4-methyl-N^6-(5-methyl-1H-pyrazol-3-yl)-2-(2-(trifluoromethyl)phenyl)pyrimidine-4,6-diamine]
≤ 1 | ≤ 1 | – | Cc1cc(Nc2cc(NC3CCOCC3)nc(-c3cccc4ccccc34)n2)n[nH]1 [Example 127, N^4-(5-methyl-1H-pyrazol-3-yl)-2-(naphthalen-1-yl)-N^6-(tetrahydro-2H-pyran-4-yl)pyrimidine-4,6-diamine]
≤ 1 | ≤ 1 | – | Cc1cc(Nc2cc(N3CCN(C)CC3)nc(-c3cccc4c3OCCO4)n2)n[nH]1 [Example 136, 2-(2,3-dihydrobenzo[b][1,4]dioxin-5-yl)-N-(5-methyl-1H-pyrazol-3-yl)-6-(4-methylpiperazin-1-yl)pyrimidin-4-amine]
– | ≤ 1 | ≤ 0.1 | Cc1cc(Nc2cc(N(C)CCN(C)C)nc(-c3ccc4ccccc4c3)n2)n[nH]1 [Example 142, N^4-(2-(dimethylamino)ethyl)-N^4-methyl-N^6-(5-methyl-1H-pyrazol-3-yl)-2-(naphthalen-2-yl)pyrimidine-4,6-diamine]
– | ≤ 1 | ≤ 0.1 | Cc1cc(Nc2cc(N(C)CCN(C)C)nc(-c3ccc4c(c3)OCO4)n2)n[nH]1 [Example 146, 2-(benzo[d][1,3]dioxol-5-yl)-N^4-(2-(dimethylamino)ethyl)-N^4-methyl-N^6-(5-methyl-1H-pyrazol-3-yl)pyrimidine-4,6-diamine]
≤ 1 | ≤ 1 | – | COCCN(C)c1cc(Nc2cc(C)[nH]n2)nc(-c2cccc3ccccc23)n1 [Example 148, N^4-(2-methoxyethyl)-N^4-methyl-N^6-(5-methyl-1H-pyrazol-3-yl)-2-(naphthalen-1-yl)pyrimidine-4,6-diamine]
≤ 1 | ≤ 1 | – | COCCN(C)c1cc(Nc2cc(C)[nH]n2)nc(-c2ccc3ccccc3c2)n1 [Example 149, N^4-(2-methoxyethyl)-N^4-methyl-N^6-(5-methyl-1H-pyrazol-3-yl)-2-(naphthalen-2-yl)pyrimidine-4,6-diamine]
– | ≤ 1 | – | COCCN(C)c1cc(Nc2cc(C)[nH]n2)nc(-c2cccc3c2OCCO3)n1 [Example 150, 2-(2,3-dihydrobenzo[b][1,4]dioxin-5-yl)-N^4-(2-methoxyethyl)-N^4-methyl-N^6-(5-methyl-1H-pyrazol-3-yl)pyrimidine-4,6-diamine]
– | ≤ 1 | ≤ 0.1 | Cc1cc(Nc2cc(N3CCN(C)CC3)nc(-c3ccc(-c4ccccc4)cc3)n2)n[nH]1 [Example 157, 2-(biphenyl-4-yl)-N-(5-methyl-1H-pyrazol-3-yl)-6-(4-methylpiperazin-1-yl)pyrimidin-4-amine]
